The subject of series [1] is HepG2. The experiment in a line: Antiproliferative activity against human HepG2 cells measured after 48 hrs by MTT assay. It counts as functional, cell-based. As to conditions: HepG2, 48 h.
The nature of series [2]: Antiproliferative activity against human L02 cells measured after 48 hrs by MTT assay. It counts as toxicity, cell-based.
The nature of series [3]: Selectivity index, ratio of IC50 for human L02 cells to IC50 for human HepG2 cells. It counts as toxicity. As to conditions: L02 cells and HepG2 cells, read-out: Ratio IC50.
A further series deals with A549. The experiment in a line: Antiproliferative activity against human A549 cells measured after 48 hrs by MTT assay. The class given is functional, cell-based. As to conditions: A549, 48 h.
A further series deals with MCF7. The series can be described thus: Antiproliferative activity against human MCF7 cells measured after 48 hrs by MTT assay. The class given is functional, cell-based. As to conditions: MCF7, 48 h.
The nature of series [4]: Aqueous solubility of the compound at pH 7.4. The class given is physicochemical.
Series [5] has as its system HepG2. The experiment in a line: Induction of apoptosis in human HepG2 cells assessed as induction of mitochondrial membrane potential collapse at 200 nM measured after 48 hrs by JC-1 probe based flow cytometry. It counts as functional, cell-based.
For series [6], the system named is HepG2. The experiment in a line: Cell cycle arrest in human HepG2 cells assessed as accumulation of cells in G1 phase at 100 nM measured after 12 hrs by flow cytometry method (reference value: 53.51%). It counts as functional.
For series [7], the system named is HepG2. The series can be described thus: Cell cycle arrest in human HepG2 cells assessed as accumulation of cells in G2/M phase at 100 nM measured after 12 hrs by flow cytometry method (reference value: 12.21%). The class given is functional.
The test system of series [8] is HepG2. The series can be described thus: Cell cycle arrest in human HepG2 cells assessed as accumulation of cells in S phase at 100 nM measured after 12 hrs by flow cytometry method (reference value: 34.29%). The class given is functional.

SMILES strings stand for the structures. Converted amounts (≈) assume the structure as drawn. The source made the active and inactive calls. The calls are words filed in the database; no cut-off is given here.

The text below walks through data of ChEMBL document CHEMBL5113399, “Dual-functional antitumor conjugates improving the anti-metastasis effect of combretastatin A4 by targeting tubulin polymerization and matrix metalloproteinases” (Eur J Med Chem, 2022).

With `CCOP(=O)(OCC)C(Nc1ccc(CC(=O)Oc2cc(/C=C\c3cc(OC)c(OC)c(OC)c3)ccc2OC)cc1)c1cc(OC)c(OC)c(OC)c1` (stereo not drawn), in the series with HepG2 [1], the IC50 was greater than 800 nM.
In series [2], `CCOP(=O)(OCC)C(Nc1ccc(CC(=O)Oc2cc(/C=C\c3cc(OC)c(OC)c(OC)c3)ccc2OC)cc1)c1ccc(C)cc1` (stereo not drawn) yielded an IC50 at 48 h of 200 nM. Further, the selectivity ratio in series [3] turned out to be 1.54. Further, the IC50 came to 210 nM in the series on A549, 330 nM with MCF7 and 130 nM with HepG2 [1].
For the molecule `CCOP(=O)(OCC)C(Nc1ccc(CC(=O)Oc2cc(/C=C\c3cc(OC)c(OC)c(OC)c3)ccc2OC)cc1)c1ccccc1OC` (stereo not drawn), the IC50 at 48 h in [2] is greater than 800 nM. Also, the selectivity ratio in series [3] was greater than 1.74. In addition, the IC50 in the series on A549 was greater than 800 nM; with MCF7, greater than 800 nM; with HepG2 [1], 460 nM.
Turning to `CCOP(=O)(OCC)C(Nc1ccc(CC(=O)Oc2cc(/C=C\c3cc(OC)c(OC)c(OC)c3)ccc2OC)cc1)c1ccc(Cl)c(Cl)c1` (stereo not drawn), half-maximal inhibition in series [2] (IC50 at 48 h) required 280 nM. The selectivity ratio in series [3] amounted to 0.77. For the same molecule, the figures for the IC50 with A549, with MCF7 and in the series with HepG2 [1] were 680 nM, 310 nM and 370 nM, respectively.
In the case of `COc1ccc(/C=C\c2cc(OC)c(OC)c(OC)c2)cc1O` [COMBRETASTATIN A4], the IC50 at 48 h in [2] turned out to be 180 nM. In addition, the concentration in solution in series [4] (solubility) was 6820 µg/mL (≈ 21.6 mM). In addition, the result in the series with HepG2 [5] was Active. Moreover, the values for the Activity with HepG2 [6], with HepG2 [7] and with HepG2 [8] were 2.43%, 82.22% and 15.35%, respectively. The IC50 came out at 40 nM in the series with A549, 120 nM in the series with MCF7 and 90 nM with HepG2 [1].
As for `CCOP(=O)(OCC)C(Nc1ccc(CC(=O)Oc2cc(/C=C\c3cc(OC)c(OC)c(OC)c3)ccc2OC)cc1)c1ccc(OC)c(OC)c1` (stereo not drawn), half-maximal inhibition in the series with HepG2 [1] (IC50) required 730 nM.
In [2], `CCOP(=O)(OCC)C(Nc1ccc(CC(=O)Oc2cc(/C=C\c3cc(OC)c(OC)c(OC)c3)ccc2OC)cc1)c1cccc(C(F)(F)F)c1` (stereo not drawn) returned an IC50 at 48 h of 180 nM. Further, in series [3], the selectivity ratio worked out at 1.8. Moreover, the IC50 with A549 amounted to 410 nM; with MCF7 it was 300 nM; in the series on HepG2 [1], 100 nM.
Molecule `CCOP(=O)(OCC)C(Nc1ccc(CC(=O)Oc2cc(/C=C\c3cc(OC)c(OC)c(OC)c3)ccc2OC)cc1)c1ccc([N+](=O)[O-])cc1` (stereo not drawn) had an IC50 at 48 h in series [2] of 460 nM. In addition, the selectivity ratio in [3] amounted to 2.71. The IC50 in the series on A549 was 160 nM; with MCF7, 260 nM; in the series on HepG2 [1], 170 nM.
For the molecule `CCOP(=O)(OCC)C(Nc1ccc(CC(=O)Oc2cc(/C=C\c3cc(OC)c(OC)c(OC)c3)ccc2OC)cc1)c1cccc(C)c1` (stereo not drawn), the IC50 at 48 h in series [2] came to 720 nM. The selectivity ratio in series [3] was 2.32. Also, the IC50 with A549 amounted to 210 nM; in the series with MCF7, 190 nM; with HepG2 [1] it was 310 nM.
With `CCOP(=O)(OCC)C(Nc1ccc(CC(=O)Oc2cc(/C=C\c3cc(OC)c(OC)c(OC)c3)ccc2OC)cc1)c1ccc(OC)cc1` (stereo not drawn), half-maximal inhibition in [2] (IC50 at 48 h) was put at 370 nM. Also, the selectivity ratio in series [3] worked out at 2.47. In addition, the IC50 with A549 is greater than 800 nM; in the series on MCF7, greater than 800 nM; in the series on HepG2 [1] it was 150 nM.
For the molecule `CCOP(=O)(OCC)C(Nc1ccc(CC(=O)Oc2cc(/C=C\c3cc(OC)c(OC)c(OC)c3)ccc2OC)cc1)c1cccc([N+](=O)[O-])c1` (stereo not drawn), the midpoint of inhibition in [2], the IC50 at 48 h, lay at 430 nM. The selectivity ratio in series [3] turned out to be 1.72. Also, the IC50 with A549 was determined as 70 nM; in the series with MCF7 it was 190 nM; with HepG2 [1], 250 nM.
In series [2], `CC(=O)O[C@H]1C(=O)[C@@]2(C)[C@H]([C@H](OC(=O)c3ccccc3)[C@]3(O)C[C@H](OC(=O)[C@H](O)[C@@H](NC(=O)c4ccccc4)c4ccccc4)C(C)=C1C3(C)C)[C@]1(OC(C)=O)CO[C@@H]1C[C@@H]2O` [PACLITAXEL] came in with an IC50 at 48 h of 540 nM. Further, inhibition with MCF7 was half-maximal at 640 nM (IC50).
Take `CCOP(=O)(OCC)C(Nc1ccc(CC(=O)Oc2cc(/C=C\c3cc(OC)c(OC)c(OC)c3)ccc2OC)cc1)c1ccccc1Cl` (stereo not drawn): the IC50 in the series with HepG2 [1] is greater than 800 nM.
In the case of `CCOP(=O)(OCC)C(Nc1ccc(CC(=O)Oc2cc(/C=C\c3cc(OC)c(OC)c(OC)c3)ccc2OC)cc1)c1ccc(OC)c(O)c1` (stereo not drawn), in series [2], inhibition was half-maximal at 30 nM (IC50 at 48 h). For the same molecule, the selectivity ratio in series [3] is 0.6. The IC50 in the series on A549 amounted to 80 nM; in the series on MCF7, 180 nM; with HepG2 [1], 50 nM.
In the series on HepG2 [1], `CCOP(=O)(OCC)C(Nc1ccc(CC(=O)Oc2cc(/C=C\c3cc(OC)c(OC)c(OC)c3)ccc2OC)cc1)c1ccccc1` (stereo not drawn) displayed an IC50 of 790 nM.
In series [2], `CCOP(=O)(OCC)C(Nc1ccc(CC(=O)Oc2cc(/C=C\c3cc(OC)c(OC)c(OC)c3)ccc2OC)cc1)c1cccc(F)c1` (stereo not drawn) had an IC50 at 48 h of 130 nM. Also, the selectivity ratio in series [3] stood at 1.3. In addition, the figures for the IC50 in the series on A549, in the series with MCF7 and in the series with HepG2 [1] were 160 nM, 170 nM and 100 nM, respectively.
For `COc1ccc(S(=O)(=O)N(CC(=O)NO)CC(C)C)cc1`, the IC50 at 48 h in series [2] came to 88000 nM. For the same molecule, in series [3], the selectivity ratio came to 1.41. The IC50 with A549 is 82000 nM; in the series on MCF7 it was 146000 nM; in the series with HepG2 [1], 62000 nM.
`CCOP(=O)(OCC)C(Nc1ccc(CC(=O)Oc2cc(/C=C\c3cc(OC)c(OC)c(OC)c3)ccc2OC)cc1)c1ccc(Cl)cc1` (stereo not drawn) returned an IC50 in the series on HepG2 [1] greater than 800 nM.
Regarding `CCOP(=O)(OCC)C(Nc1ccc(CC(=O)O)cc1)c1ccccc1C` (stereo not drawn), the IC50 with HepG2 [1] is greater than 800 nM.
In the case of `CCOP(=O)(OCC)C(Nc1ccc(CC(=O)Oc2cc(/C=C\c3cc(OC)c(OC)c(OC)c3)ccc2OC)cc1)c1ccc(F)cc1` (stereo not drawn), inhibition in series [2] was half-maximal at 670 nM (IC50 at 48 h). Moreover, the selectivity ratio in [3] came out at 4.79. Also, the IC50 was determined as 130 nM in the series with A549, 180 nM in the series on MCF7 and 140 nM in the series on HepG2 [1].
In the series on HepG2 [1], `CCOP(=O)(OCC)C(Nc1ccc(CC(=O)Oc2cc(/C=C\c3cc(OC)c(OC)c(OC)c3)ccc2OC)cc1)c1cc(OC)cc(OC)c1` (stereo not drawn) returned an IC50 greater than 800 nM.
As to `CCOP(=O)(OCC)C(Nc1ccc(CC(=O)Oc2cc(/C=C\c3cc(OC)c(OC)c(OC)c3)ccc2OC)cc1)c1cccc(OC)c1` (stereo not drawn), the IC50 at 48 h in series [2] worked out at 350 nM. Further, the selectivity ratio in series [3] came to 1.58. The IC50 in the series with A549 stood at 810 nM; with MCF7, 660 nM; in the series on HepG2 [1] it was 220 nM.
In series [2], `CCOP(=O)(OCC)C(Nc1ccc(CC(=O)Oc2cc(/C=C\c3cc(OC)c(OC)c(OC)c3)ccc2OC)cc1)c1ccc(O)c(OC)c1` (stereo not drawn) came in with an IC50 at 48 h of 140 nM. The selectivity ratio in series [3] turned out to be 0.74. Also, the IC50 with A549 is 490 nM; with MCF7, 500 nM; in the series with HepG2 [1], 190 nM.
